As usually defined, the Ki is the equilibrium dissociation constant of an inhibitor or competing ligand from its target. As usually defined, the pKi is the Ki on a negative log10 scale, so that one unit is a factor of ten. A word on the ED50: it is the dose that gives a 50% effect, or the effect in half of the subjects. Higher therefore signals a need for a large dose. By logP is commonly meant a log measure of how a compound divides between an organic and an aqueous phase. High values mean a more lipophilic compound, low ones a more hydrophilic compound.

The structures appear in SMILES notation. pKi: −log10 of the molar value.

Data set [1] concerns the target T1, Adrenergic receptor alpha-2 (Rattus norvegicus, UniProt P22086+P19328+P22909).
T1 sequence (P22086 whole entry): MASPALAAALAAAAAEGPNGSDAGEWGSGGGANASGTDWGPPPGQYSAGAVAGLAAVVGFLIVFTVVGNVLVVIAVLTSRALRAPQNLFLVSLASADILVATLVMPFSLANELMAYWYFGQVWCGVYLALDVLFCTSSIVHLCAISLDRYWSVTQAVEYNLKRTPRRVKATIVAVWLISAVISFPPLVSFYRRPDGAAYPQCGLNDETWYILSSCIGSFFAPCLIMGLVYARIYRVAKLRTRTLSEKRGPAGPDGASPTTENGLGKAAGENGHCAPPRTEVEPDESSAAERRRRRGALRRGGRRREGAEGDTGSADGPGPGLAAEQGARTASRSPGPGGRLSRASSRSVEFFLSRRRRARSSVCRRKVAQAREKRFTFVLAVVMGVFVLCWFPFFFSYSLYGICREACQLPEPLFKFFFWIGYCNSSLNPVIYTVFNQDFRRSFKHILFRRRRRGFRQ
T1 sequence (P19328 whole entry): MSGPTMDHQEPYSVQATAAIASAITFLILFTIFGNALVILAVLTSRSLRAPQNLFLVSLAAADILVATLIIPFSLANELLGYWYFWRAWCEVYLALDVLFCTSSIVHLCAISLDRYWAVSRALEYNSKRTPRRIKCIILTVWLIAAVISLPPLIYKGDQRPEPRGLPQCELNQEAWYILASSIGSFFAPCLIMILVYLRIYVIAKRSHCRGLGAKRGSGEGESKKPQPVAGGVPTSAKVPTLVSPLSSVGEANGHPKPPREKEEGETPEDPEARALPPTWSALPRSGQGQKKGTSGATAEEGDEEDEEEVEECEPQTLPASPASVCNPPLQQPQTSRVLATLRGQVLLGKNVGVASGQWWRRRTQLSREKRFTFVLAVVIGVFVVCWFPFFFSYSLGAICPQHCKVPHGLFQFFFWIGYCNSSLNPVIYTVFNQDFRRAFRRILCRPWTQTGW
T1 sequence (P22909 whole entry): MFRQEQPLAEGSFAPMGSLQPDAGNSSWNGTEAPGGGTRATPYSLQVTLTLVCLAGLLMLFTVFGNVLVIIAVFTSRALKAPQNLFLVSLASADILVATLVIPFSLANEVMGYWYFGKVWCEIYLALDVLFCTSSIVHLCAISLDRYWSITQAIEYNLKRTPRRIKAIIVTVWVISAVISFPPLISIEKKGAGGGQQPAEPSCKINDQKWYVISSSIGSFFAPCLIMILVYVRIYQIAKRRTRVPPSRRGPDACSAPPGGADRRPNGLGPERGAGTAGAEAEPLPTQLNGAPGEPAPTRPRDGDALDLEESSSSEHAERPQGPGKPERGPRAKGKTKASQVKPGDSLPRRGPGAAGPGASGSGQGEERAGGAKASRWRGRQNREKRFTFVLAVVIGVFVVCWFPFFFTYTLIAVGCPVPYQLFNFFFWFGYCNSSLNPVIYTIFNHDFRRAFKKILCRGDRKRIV
Description: Binding affinity towards alpha-2 adrenergic receptors in rat brain synaptosomal preparations

In data set [2] the target is T2, 5-hydroxytryptamine receptor 1A (Rattus norvegicus, UniProt P19327).
T2 sequence (P19327 whole entry): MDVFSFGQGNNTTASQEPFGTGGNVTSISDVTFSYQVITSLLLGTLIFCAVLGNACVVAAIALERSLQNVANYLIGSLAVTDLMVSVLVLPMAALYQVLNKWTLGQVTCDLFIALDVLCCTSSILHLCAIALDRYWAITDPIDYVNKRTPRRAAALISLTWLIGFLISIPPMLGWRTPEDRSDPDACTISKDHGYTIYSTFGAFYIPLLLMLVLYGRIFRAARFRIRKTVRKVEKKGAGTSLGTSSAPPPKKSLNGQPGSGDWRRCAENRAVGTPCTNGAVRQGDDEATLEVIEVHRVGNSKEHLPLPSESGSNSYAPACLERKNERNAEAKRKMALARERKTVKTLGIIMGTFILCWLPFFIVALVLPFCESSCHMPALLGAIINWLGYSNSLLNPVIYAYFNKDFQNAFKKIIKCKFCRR
Description: Binding affinity towards 5-hydroxytryptamine 1A receptor of rat brain synaptosomal preparations

Data set [3] concerns the target T3, Adrenergic receptor alpha-1 (Rattus norvegicus, UniProt P15823+P23944+P43140).
T3 sequence (P15823 whole entry): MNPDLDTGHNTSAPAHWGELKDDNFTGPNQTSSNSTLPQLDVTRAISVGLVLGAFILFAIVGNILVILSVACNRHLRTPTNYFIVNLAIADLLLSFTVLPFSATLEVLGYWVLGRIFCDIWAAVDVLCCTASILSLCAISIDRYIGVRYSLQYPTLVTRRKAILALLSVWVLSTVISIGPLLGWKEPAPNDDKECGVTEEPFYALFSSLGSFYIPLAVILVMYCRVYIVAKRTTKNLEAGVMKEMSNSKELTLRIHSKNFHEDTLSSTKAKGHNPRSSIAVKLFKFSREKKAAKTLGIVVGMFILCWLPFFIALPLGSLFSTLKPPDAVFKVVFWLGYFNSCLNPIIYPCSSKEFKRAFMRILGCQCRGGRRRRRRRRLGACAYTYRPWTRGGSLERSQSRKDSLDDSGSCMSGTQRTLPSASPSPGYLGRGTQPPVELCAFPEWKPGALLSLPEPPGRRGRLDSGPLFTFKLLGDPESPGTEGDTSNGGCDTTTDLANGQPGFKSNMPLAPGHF
T3 sequence (P23944 whole entry): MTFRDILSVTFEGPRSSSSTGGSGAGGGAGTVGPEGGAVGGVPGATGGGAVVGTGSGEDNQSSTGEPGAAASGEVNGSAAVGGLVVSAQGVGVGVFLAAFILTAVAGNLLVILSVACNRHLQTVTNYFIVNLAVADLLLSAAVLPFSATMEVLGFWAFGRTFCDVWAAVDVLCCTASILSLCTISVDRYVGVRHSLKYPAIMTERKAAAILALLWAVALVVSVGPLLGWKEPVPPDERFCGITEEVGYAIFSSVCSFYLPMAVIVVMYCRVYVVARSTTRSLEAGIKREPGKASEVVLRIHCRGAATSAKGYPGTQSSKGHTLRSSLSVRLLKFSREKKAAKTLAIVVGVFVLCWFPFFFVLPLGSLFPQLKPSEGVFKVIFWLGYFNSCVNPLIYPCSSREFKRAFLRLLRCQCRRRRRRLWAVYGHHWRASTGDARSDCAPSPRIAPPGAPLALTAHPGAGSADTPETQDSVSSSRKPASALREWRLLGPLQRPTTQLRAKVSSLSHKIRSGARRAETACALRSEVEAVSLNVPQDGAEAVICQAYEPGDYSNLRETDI
T3 sequence (P43140 whole entry): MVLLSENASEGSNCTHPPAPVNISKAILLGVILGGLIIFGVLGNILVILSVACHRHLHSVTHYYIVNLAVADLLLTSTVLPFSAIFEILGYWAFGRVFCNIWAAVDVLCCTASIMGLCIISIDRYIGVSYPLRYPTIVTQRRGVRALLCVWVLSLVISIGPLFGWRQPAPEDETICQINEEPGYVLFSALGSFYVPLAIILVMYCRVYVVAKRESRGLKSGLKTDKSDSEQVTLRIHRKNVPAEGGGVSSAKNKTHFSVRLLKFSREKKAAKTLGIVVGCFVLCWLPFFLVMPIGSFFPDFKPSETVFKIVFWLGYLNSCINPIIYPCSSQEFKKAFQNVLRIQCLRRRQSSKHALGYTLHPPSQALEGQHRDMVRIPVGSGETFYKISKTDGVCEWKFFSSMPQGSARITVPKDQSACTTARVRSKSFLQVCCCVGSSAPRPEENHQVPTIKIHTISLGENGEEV
Nature of the data set: Binding affinity towards alpha-1 adrenergic receptors in rat brain synaptosomal preparations. In kind it is tissue-based.

The next data set concerns the target D(2) dopamine receptor (Rattus norvegicus, UniProt P61169). Nature of the data set: Binding affinity towards dopamine D2 receptors in rat brain synaptosomal preparations. In kind it is tissue-based.
The species entered for data set [4] is Rattus norvegicus. The experiment in a line: The compound was evaluated for the conditioned avoidance response data (CAR) in rat intra peritoneally. It is filed as functional.
In data set [5] the test system is Rattus norvegicus. The experiment in a line: The compound is evaluated for induction of catalepsy in rats at a dose of 100 mg/kg after peroral administration. It is filed as functional. The conditions noted are these: route oral.
The target in data set [6] is Serotonin 2 (5-HT2) receptor (Rattus norvegicus, UniProt P30994+P08909+P14842). Nature of the data set: Binding affinity towards 5-hydroxytryptamine 2 receptor. In kind it is protein assay.
Data set [7] concerns the target Muscarinic acetylcholine receptor. Nature of the data set: Binding affinity towards muscarinic receptors. In kind it is protein assay, Rattus norvegicus.
For another data set, the target named is D(3) dopamine receptor (Rattus norvegicus, UniProt P19020). Nature of the data set: Binding affinity towards baculovirus expressed rat dopamine D3 receptors.
Sequence of D(3) dopamine receptor (P19020 whole entry): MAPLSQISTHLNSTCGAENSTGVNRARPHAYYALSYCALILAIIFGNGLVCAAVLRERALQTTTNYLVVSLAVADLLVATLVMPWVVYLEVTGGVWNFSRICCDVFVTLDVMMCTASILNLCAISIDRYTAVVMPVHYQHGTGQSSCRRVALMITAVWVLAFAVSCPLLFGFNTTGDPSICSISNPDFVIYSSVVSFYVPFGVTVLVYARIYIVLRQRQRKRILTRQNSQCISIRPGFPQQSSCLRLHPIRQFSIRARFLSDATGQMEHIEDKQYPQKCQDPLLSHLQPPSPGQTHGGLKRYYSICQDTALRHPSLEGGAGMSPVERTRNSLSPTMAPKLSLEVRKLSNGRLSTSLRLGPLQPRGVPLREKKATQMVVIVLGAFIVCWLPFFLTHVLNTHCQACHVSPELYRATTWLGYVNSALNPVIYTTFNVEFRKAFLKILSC
For a further data set, the target named is D(1A) dopamine receptor (Homo sapiens, UniProt P21728). Nature of the data set: Binding affinity towards dopamine receptor D1 (human clone).
Sequence of D(1A) dopamine receptor (P21728 whole entry): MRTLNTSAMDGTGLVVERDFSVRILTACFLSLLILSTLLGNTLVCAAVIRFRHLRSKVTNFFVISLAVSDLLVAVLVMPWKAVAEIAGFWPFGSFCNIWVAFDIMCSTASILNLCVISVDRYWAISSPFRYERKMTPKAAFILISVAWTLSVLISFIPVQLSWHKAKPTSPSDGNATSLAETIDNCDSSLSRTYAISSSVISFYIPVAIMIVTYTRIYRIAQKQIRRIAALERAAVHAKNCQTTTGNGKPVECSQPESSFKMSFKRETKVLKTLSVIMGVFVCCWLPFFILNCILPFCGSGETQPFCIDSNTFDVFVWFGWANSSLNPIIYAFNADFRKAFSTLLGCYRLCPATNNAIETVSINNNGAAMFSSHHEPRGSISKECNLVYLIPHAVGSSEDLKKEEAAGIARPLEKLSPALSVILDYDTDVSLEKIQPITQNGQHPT
In data set [8] the target is Sigma non-opioid intracellular receptor 1 (Rattus norvegicus, UniProt Q9R0C9). Nature of the data set: Binding affinity towards sigma receptors.
Sequence of Sigma non-opioid intracellular receptor 1 (Q9R0C9 whole entry): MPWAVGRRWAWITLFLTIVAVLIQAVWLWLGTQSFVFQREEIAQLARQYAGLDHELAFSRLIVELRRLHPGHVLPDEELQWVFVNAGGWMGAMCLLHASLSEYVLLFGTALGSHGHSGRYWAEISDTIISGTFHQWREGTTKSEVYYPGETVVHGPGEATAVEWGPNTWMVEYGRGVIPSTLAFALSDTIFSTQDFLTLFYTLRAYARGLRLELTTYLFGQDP
The next data set deals with D(1B) dopamine receptor (Rattus norvegicus, UniProt P25115). The experiment in a line: Binding affinity towards Dopamine receptor D5 (rat clone).
Sequence of D(1B) dopamine receptor (P25115 whole entry): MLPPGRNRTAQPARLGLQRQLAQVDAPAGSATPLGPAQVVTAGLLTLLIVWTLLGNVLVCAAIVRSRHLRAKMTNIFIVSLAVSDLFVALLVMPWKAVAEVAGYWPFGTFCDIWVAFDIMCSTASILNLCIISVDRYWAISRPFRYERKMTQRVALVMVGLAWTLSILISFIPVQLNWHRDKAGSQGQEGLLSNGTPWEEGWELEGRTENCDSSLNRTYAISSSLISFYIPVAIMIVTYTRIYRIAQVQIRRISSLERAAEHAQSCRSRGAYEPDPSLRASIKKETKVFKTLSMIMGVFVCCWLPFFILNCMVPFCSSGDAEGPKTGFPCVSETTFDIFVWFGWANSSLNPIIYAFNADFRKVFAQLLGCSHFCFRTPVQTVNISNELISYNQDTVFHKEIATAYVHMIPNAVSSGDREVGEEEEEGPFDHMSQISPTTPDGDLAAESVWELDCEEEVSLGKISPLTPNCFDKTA
The test system of data set [9] is Rattus norvegicus. Nature of the data set: The compound is evaluated for inhibition of 8-OH-DPAT induced reciprocal forepaw treading in reserpinized rats after intraperitoneal administration. In kind it is functional. Conditions: ip.
Data set [10] can be described thus: Partition coefficient (logP). In kind it is physicochemical. The conditions noted are these: octanol/water.
Data set [11] has as its system Rattus norvegicus. The experiment in a line: The compound was evaluated for the conditioned avoidance response data (CAR) in rat peroral administration. It is filed as functional. Conditions: po.
In another data set the test system is Canis familiaris. Nature of the data set: The compound is evaluated for inhibition of apomorphine induced emesis in dogs after peroral administration. In kind it is functional, Canis lupus familiaris.
The test system of data set [12] is Rattus norvegicus. The experiment in a line: The compound was evaluated for the conditioned avoidance response data (CAR) in rat intravenous administration at 0.66 mg/kg concentration. In kind it is functional.
Data set [13] deals with 5-hydroxytryptamine receptor 1B (Rattus norvegicus, UniProt P28564). The experiment in a line: Binding affinity towards 5-hydroxytryptamine 1B receptor.
Sequence of 5-hydroxytryptamine receptor 1B (P28564 whole entry): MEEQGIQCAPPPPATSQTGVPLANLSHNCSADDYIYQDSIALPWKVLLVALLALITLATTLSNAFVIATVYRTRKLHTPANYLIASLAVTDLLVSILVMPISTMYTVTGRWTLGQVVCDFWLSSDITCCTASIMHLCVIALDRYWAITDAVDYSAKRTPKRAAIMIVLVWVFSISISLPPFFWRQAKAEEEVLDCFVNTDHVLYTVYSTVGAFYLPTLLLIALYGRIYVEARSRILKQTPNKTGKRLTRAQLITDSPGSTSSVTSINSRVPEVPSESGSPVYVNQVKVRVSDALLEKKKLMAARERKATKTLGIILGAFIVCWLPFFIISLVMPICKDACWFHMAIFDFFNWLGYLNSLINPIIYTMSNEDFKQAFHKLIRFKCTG
The test system of a further data set is Mus musculus. The experiment in a line: The compound is evaluated for inhibition of apomorphine induced climbing behavior in mice after peroral administration. In kind it is functional. Conditions: po.

Sequence of D(2) dopamine receptor (P61169 whole entry): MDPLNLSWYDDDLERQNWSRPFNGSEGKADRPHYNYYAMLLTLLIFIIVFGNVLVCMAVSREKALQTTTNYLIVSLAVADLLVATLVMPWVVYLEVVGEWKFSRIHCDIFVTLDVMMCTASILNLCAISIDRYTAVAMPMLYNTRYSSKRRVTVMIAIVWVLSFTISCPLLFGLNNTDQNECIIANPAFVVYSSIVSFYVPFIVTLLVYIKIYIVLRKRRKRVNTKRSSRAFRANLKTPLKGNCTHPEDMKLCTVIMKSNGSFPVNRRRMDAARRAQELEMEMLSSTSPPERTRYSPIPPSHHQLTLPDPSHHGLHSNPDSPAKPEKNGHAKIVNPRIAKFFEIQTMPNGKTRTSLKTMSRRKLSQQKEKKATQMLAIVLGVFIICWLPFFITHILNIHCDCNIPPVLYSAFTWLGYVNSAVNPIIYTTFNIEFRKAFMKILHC

Regarding `CC(C)Oc1ccccc1N1CCN(Cc2ccccc2C(=O)N2CCCCC2)CC1`, the values for the Ki in [1] and in data set [3] were 16 nM and 220 nM, respectively. Moreover, the values for the pKi (in data set [2]; on D(2) dopamine receptor) were 8.17 and 7.43, respectively.
With `CC(C)Oc1ccccc1N1CCN(Cc2ccc(C(=O)N3CCCCC3)cc2)CC1`, the negative logarithm of the Ki (pKi) is 6.25 in [2] and 7.00 on D(2) dopamine receptor. Besides, in data set [3], the Ki is recorded as 3 nM.
As for `CC(C)Oc1ccccc1N1CCN(Cc2ccc(CN3CCCCC3=O)cc2)CC1`, the Ki in [1] worked out at 1000 nM.
In turn, `CN1CCN(C2=Nc3cc(Cl)ccc3Nc3ccccc32)CC1` [CLOZAPINE] gave an ED50 in the data set filed under Rattus norvegicus [4] of 4 mg/kg.
In turn, `CC(C)Oc1ccccc1N1CCN(Cc2cccc(C(=O)N3CCCCC3)c2)CC1` [MAZAPERTINE] registered a Catalepsy with Rattus norvegicus [5] of 30%. For the same compound, the Ki in data set [6] is 165 nM; in [7] it was over 5000 nM; in [1], 17 nM. The pKi is 8.74 at D(3) dopamine receptor; under 5.30 at D(1A) dopamine receptor; under 5.30 in data set [8]; under 5.30 at D(1B) dopamine receptor; 5.54 in [13]. For the same compound, the ED50 came out at 5.24 mg/kg in the data set on Rattus norvegicus [9]; 13.8 mg/kg with Rattus norvegicus [11]; 0.038 mg/kg in the data set with Canis familiaris; 0.23 mg/kg in the data set with Rattus norvegicus [12]; 0.6 mg/kg in the data set on Mus musculus. Besides, the logP in [10] came to 4.

For the origin of these results see ChEMBL document CHEMBL1127628, “A new arylpiperazine antipsychotic with high D2/D3/5-HT1A/alpha 1A-adrenergic affinity and a low potential for extrapyramidal effects” (J Med Chem, 1994).
